# Assay results from article PMC12616683, “In Vivo Atlas of Neuroprotective Cyclic Dipeptides Derived from Food Gelatin Using Peptidomics and Feature-Based Molecular Networking” (Journal of Agricultural and Food Chemistry, 2025).
# Peptide text beside a SMILES is read from it.
# Experiment: FBMN analysis of short peptides in small intestine contents and serum after oral DHG
# Details: for Peptide signal (feature intensity) in the small intestine, 30 min / Peptide signal (feature intensity) in the small intestine, 60 min / Peptide signal (feature intensity) in the small intestine, 120 min / Peptide signal (feature intensity) in the small intestine, 240 min: small intestine contents, C57 mice, FBMN feature intensity, peptides smaller than 690 Da; for Peptide signal (feature intensity) in the small intestine, 30 min: 30 min after oral DHG; for Peptide signal (feature intensity) in the small intestine, 60 min: 60 min after oral DHG; for Peptide signal (feature intensity) in the small intestine, 120 min: 120 min after oral DHG; for Peptide signal (feature intensity) in the small intestine, 240 min: 240 min after oral DHG; for time detected in serum (FBMN): time points 0.5-4 h after oral DHG
smiles,measurement,value
CC[C@H](C)[C@H](NC(=O)[C@@H](N)CC(N)=O)C(=O)O [Asn-Ile] (H-Asn-Ile-OH),"Peptide signal (feature intensity) in the small intestine, 30 min",1.55E+06
same,"Peptide signal (feature intensity) in the small intestine, 60 min",1.54E+06
same,"Peptide signal (feature intensity) in the small intestine, 120 min",4.19E+06
same,"Peptide signal (feature intensity) in the small intestine, 240 min",2.54E+06
NC(=O)C[C@H](N)C(=O)N[C@@H](Cc1ccccc1)C(=O)O [Asn-Phe] (H-Asn-Phe-OH),"Peptide signal (feature intensity) in the small intestine, 30 min",2.16E+06
same,"Peptide signal (feature intensity) in the small intestine, 60 min",2.86E+06
same,"Peptide signal (feature intensity) in the small intestine, 120 min",5.41E+06
same,"Peptide signal (feature intensity) in the small intestine, 240 min",4.96E+06
CC(C)C[C@H](NC(=O)[C@@H](N)CC(=O)O)C(=O)O [Asp-Leu] (H-Asp-Leu-OH),"Peptide signal (feature intensity) in the small intestine, 30 min",5.68E+06
same,"Peptide signal (feature intensity) in the small intestine, 60 min",2.91E+06
same,"Peptide signal (feature intensity) in the small intestine, 120 min",7.39E+06
same,"Peptide signal (feature intensity) in the small intestine, 240 min",1.44E+07
N[C@@H](CC(=O)O)C(=O)N[C@@H](Cc1ccccc1)C(=O)O [Asp-Phe] (H-Asp-Phe-OH),time detected in serum (FBMN),only detected in the first hour
same,"Peptide signal (feature intensity) in the small intestine, 30 min",3.76E+07
same,"Peptide signal (feature intensity) in the small intestine, 60 min",6.08E+07
same,"Peptide signal (feature intensity) in the small intestine, 120 min",1.22E+08
same,"Peptide signal (feature intensity) in the small intestine, 240 min",1.29E+08
N[C@@H](CC(=O)O)C(=O)N1CCC[C@H]1C(=O)O [Asp-Pro] (H-Asp-Pro-OH),"Peptide signal (feature intensity) in the small intestine, 30 min",0.00E+00
same,"Peptide signal (feature intensity) in the small intestine, 60 min",7.32E+06
same,"Peptide signal (feature intensity) in the small intestine, 120 min",1.15E+07
same,"Peptide signal (feature intensity) in the small intestine, 240 min",2.09E+07
N[C@@H](CCC(=O)O)C(=O)N[C@@H](Cc1ccccc1)C(=O)O [Glu-Phe],time detected in serum (FBMN),≥ 4 h
same,"Peptide signal (feature intensity) in the small intestine, 30 min",0.00E+00
same,"Peptide signal (feature intensity) in the small intestine, 60 min",3.96E+06
same,"Peptide signal (feature intensity) in the small intestine, 120 min",0.00E+00
same,"Peptide signal (feature intensity) in the small intestine, 240 min",1.66E+07
N[C@@H](CCC(=O)O)C(=O)N[C@@H](Cc1ccc(O)cc1)C(=O)O [Glu-Tyr] (H-Glu-Tyr-OH),"Peptide signal (feature intensity) in the small intestine, 30 min",6.78E+05
same,"Peptide signal (feature intensity) in the small intestine, 60 min",4.16E+05
same,"Peptide signal (feature intensity) in the small intestine, 120 min",0.00E+00
same,"Peptide signal (feature intensity) in the small intestine, 240 min",1.73E+06
CC(C)[C@H](NC(=O)[C@@H](N)CCC(=O)O)C(=O)N[C@@H](Cc1ccccc1)C(=O)O [Glu-Val-Phe] (H-Glu-Val-Phe-OH),"Peptide signal (feature intensity) in the small intestine, 30 min",2.73E+05
same,"Peptide signal (feature intensity) in the small intestine, 60 min",1.52E+05
same,"Peptide signal (feature intensity) in the small intestine, 120 min",4.18E+05
same,"Peptide signal (feature intensity) in the small intestine, 240 min",1.30E+06
CC[C@H](C)[C@H](NC(=O)CN)C(=O)O [Gly-Ile] (H-Gly-Ile-OH),"Peptide signal (feature intensity) in the small intestine, 30 min",1.17E+07
same,"Peptide signal (feature intensity) in the small intestine, 60 min",1.01E+07
same,"Peptide signal (feature intensity) in the small intestine, 120 min",0.00E+00
same,"Peptide signal (feature intensity) in the small intestine, 240 min",0.00E+00
CC(C)C[C@H](NC(=O)CN)C(=O)O [Gly-Leu],"Peptide signal (feature intensity) in the small intestine, 30 min",0.00E+00
same,"Peptide signal (feature intensity) in the small intestine, 60 min",4.18E+07
same,"Peptide signal (feature intensity) in the small intestine, 120 min",0.00E+00
same,"Peptide signal (feature intensity) in the small intestine, 240 min",4.47E+07
CSCC[C@H](NC(=O)CN)C(=O)O [Gly-Met],"Peptide signal (feature intensity) in the small intestine, 30 min",2.08E+06
same,"Peptide signal (feature intensity) in the small intestine, 60 min",7.49E+05
same,"Peptide signal (feature intensity) in the small intestine, 120 min",0.00E+00
same,"Peptide signal (feature intensity) in the small intestine, 240 min",0.00E+00
NCC(=O)N[C@@H](Cc1ccc(O)cc1)C(=O)O [Gly-Tyr] (H-Gly-Tyr-OH),"Peptide signal (feature intensity) in the small intestine, 30 min",0.00E+00
same,"Peptide signal (feature intensity) in the small intestine, 60 min",5.39E+06
same,"Peptide signal (feature intensity) in the small intestine, 120 min",0.00E+00
same,"Peptide signal (feature intensity) in the small intestine, 240 min",2.06E+07
CC(C)[C@H](NC(=O)CN)C(=O)O [Gly-Val] (H-Gly-Val-OH),"Peptide signal (feature intensity) in the small intestine, 30 min",0.00E+00
same,"Peptide signal (feature intensity) in the small intestine, 60 min",3.54E+06
same,"Peptide signal (feature intensity) in the small intestine, 120 min",0.00E+00
same,"Peptide signal (feature intensity) in the small intestine, 240 min",2.70E+06
Nc1nc2c(ncn2[C@@H]2O[C@H](CO)[C@@H](O)[C@H]2O)c(=O)[nH]1 [Guanosine],"Peptide signal (feature intensity) in the small intestine, 30 min",8.57E+06
same,"Peptide signal (feature intensity) in the small intestine, 60 min",2.01E+06
same,"Peptide signal (feature intensity) in the small intestine, 120 min",0.00E+00
same,"Peptide signal (feature intensity) in the small intestine, 240 min",0.00E+00
CC[C@H](C)[C@H](NC(=O)[C@@H](N)Cc1cnc[nH]1)C(=O)O [His-Ile] (H-His-Ile-OH),"Peptide signal (feature intensity) in the small intestine, 30 min",1.87E+07
same,"Peptide signal (feature intensity) in the small intestine, 60 min",0.00E+00
same,"Peptide signal (feature intensity) in the small intestine, 120 min",2.72E+07
same,"Peptide signal (feature intensity) in the small intestine, 240 min",2.33E+07
N[C@@H](Cc1cnc[nH]1)C(=O)N1CCC[C@H]1C(=O)O [His-Pro],"Peptide signal (feature intensity) in the small intestine, 30 min",4.26E+07
same,"Peptide signal (feature intensity) in the small intestine, 60 min",5.51E+07
same,"Peptide signal (feature intensity) in the small intestine, 120 min",0.00E+00
same,"Peptide signal (feature intensity) in the small intestine, 240 min",8.49E+06
N[C@@H](Cc1cnc[nH]1)C(=O)N[C@@H](Cc1c[nH]c2ccccc12)C(=O)O [His-Trp],"Peptide signal (feature intensity) in the small intestine, 30 min",1.94E+06
same,"Peptide signal (feature intensity) in the small intestine, 60 min",0.00E+00
same,"Peptide signal (feature intensity) in the small intestine, 120 min",1.97E+06
same,"Peptide signal (feature intensity) in the small intestine, 240 min",5.05E+06
CC[C@H](C)[C@H](N)C(=O)N[C@@H](CC(N)=O)C(=O)O [Ile-Asn] (H-Ile-Asn-OH),"Peptide signal (feature intensity) in the small intestine, 30 min",7.93E+06
same,"Peptide signal (feature intensity) in the small intestine, 60 min",7.66E+06
same,"Peptide signal (feature intensity) in the small intestine, 120 min",0.00E+00
same,"Peptide signal (feature intensity) in the small intestine, 240 min",0.00E+00
CC[C@H](C)[C@H](N)C(=O)N[C@@H](CCC(=O)O)C(=O)N[C@@H](CCCCN)C(=O)O [Ile-Glu-Lys] (H-Ile-Glu-Lys-OH),"Peptide signal (feature intensity) in the small intestine, 30 min",0.00E+00
same,"Peptide signal (feature intensity) in the small intestine, 60 min",6.83E+05
same,"Peptide signal (feature intensity) in the small intestine, 120 min",0.00E+00
same,"Peptide signal (feature intensity) in the small intestine, 240 min",2.93E+06
CC[C@H](C)[C@H](N)C(=O)NCC(=O)N[C@H](C(=O)O)[C@@H](C)CC [Ile-Gly-Ile] (H-Ile-Gly-Ile-OH),"Peptide signal (feature intensity) in the small intestine, 30 min",0.00E+00
same,"Peptide signal (feature intensity) in the small intestine, 60 min",2.90E+06
same,"Peptide signal (feature intensity) in the small intestine, 120 min",1.40E+06
same,"Peptide signal (feature intensity) in the small intestine, 240 min",1.45E+06
CC[C@H](C)[C@H](N)C(=O)N[C@H](C(=O)N[C@@H](CCCCN)C(=O)O)[C@@H](C)CC [Ile-Ile-Lys] (H-Ile-Ile-Lys-OH),"Peptide signal (feature intensity) in the small intestine, 30 min",3.33E+05
same,"Peptide signal (feature intensity) in the small intestine, 60 min",2.00E+05
same,"Peptide signal (feature intensity) in the small intestine, 120 min",0.00E+00
same,"Peptide signal (feature intensity) in the small intestine, 240 min",0.00E+00
CC[C@H](C)[C@H](N)C(=O)N[C@@H](CC(C)C)C(=O)O [Ile-Leu] (H-Ile-Leu-OH),"Peptide signal (feature intensity) in the small intestine, 30 min",3.18E+06
same,"Peptide signal (feature intensity) in the small intestine, 60 min",3.36E+06
same,"Peptide signal (feature intensity) in the small intestine, 120 min",0.00E+00
same,"Peptide signal (feature intensity) in the small intestine, 240 min",0.00E+00
CCC(C)C(N)C(=O)NC(CCCCN)C(=O)O (stereo not drawn) [Ile-Lys] (H-Ile-Lys-OH; configuration not given here),"Peptide signal (feature intensity) in the small intestine, 30 min",0.00E+00
same,"Peptide signal (feature intensity) in the small intestine, 60 min",0.00E+00
same,"Peptide signal (feature intensity) in the small intestine, 120 min",0.00E+00
same,"Peptide signal (feature intensity) in the small intestine, 240 min",0.00E+00
CCC(C)C(N)C(=O)N1CCCC1C(=O)O (stereo not drawn) [Ile-Pro] (H-Ile-Pro-OH; configuration not given here),"Peptide signal (feature intensity) in the small intestine, 30 min",1.26E+07
same,"Peptide signal (feature intensity) in the small intestine, 60 min",6.59E+06
same,"Peptide signal (feature intensity) in the small intestine, 120 min",1.48E+07
same,"Peptide signal (feature intensity) in the small intestine, 240 min",2.26E+07
CCC(C)C(N)C(=O)NC(C(=O)O)C(C)O (stereo not drawn) [Ile-Thr] (H-Ile-Thr-OH; configuration not given here),"Peptide signal (feature intensity) in the small intestine, 30 min",6.56E+06
same,"Peptide signal (feature intensity) in the small intestine, 60 min",7.13E+06
same,"Peptide signal (feature intensity) in the small intestine, 120 min",0.00E+00
same,"Peptide signal (feature intensity) in the small intestine, 240 min",0.00E+00
CC[C@H](C)[C@H](N)C(=O)N[C@@H](Cc1ccc(O)cc1)C(=O)O [Ile-Tyr] (H-Ile-Tyr-OH),"Peptide signal (feature intensity) in the small intestine, 30 min",4.20E+05
same,"Peptide signal (feature intensity) in the small intestine, 60 min",8.21E+05
same,"Peptide signal (feature intensity) in the small intestine, 120 min",0.00E+00
same,"Peptide signal (feature intensity) in the small intestine, 240 min",0.00E+00
CCCC[C@H](NC(=O)[C@H](C)N)C(=O)O [L-Alanyl-L-norleucine] (HELM PEPTIDE1{A.[Nle]}$$$$V2.0),"Peptide signal (feature intensity) in the small intestine, 30 min",1.73E+05
same,"Peptide signal (feature intensity) in the small intestine, 60 min",0.00E+00
same,"Peptide signal (feature intensity) in the small intestine, 120 min",2.05E+05
same,"Peptide signal (feature intensity) in the small intestine, 240 min",1.49E+05
CC(C)C[C@H](N)C(=O)N[C@@H](CCC(=O)O)C(=O)N[C@@H](CCCCN)C(=O)O [Leu-Glu-Lys] (H-Leu-Glu-Lys-OH),"Peptide signal (feature intensity) in the small intestine, 30 min",0.00E+00
same,"Peptide signal (feature intensity) in the small intestine, 60 min",4.20E+05
same,"Peptide signal (feature intensity) in the small intestine, 120 min",0.00E+00
same,"Peptide signal (feature intensity) in the small intestine, 240 min",9.49E+05
CC(C)C[C@H](N)C(=O)N[C@@H](CCC(=O)O)C(=O)O [Leu-Glu] (H-Leu-Glu-OH),"Peptide signal (feature intensity) in the small intestine, 30 min",7.88E+06
same,"Peptide signal (feature intensity) in the small intestine, 60 min",7.70E+06
same,"Peptide signal (feature intensity) in the small intestine, 120 min",0.00E+00
same,"Peptide signal (feature intensity) in the small intestine, 240 min",0.00E+00
